Data reported in article PMC9176662, “Design, synthesis, molecular modeling and biological evaluation of novel Benzoxazole-Benzamide conjugates via a 2-Thioacetamido linker as potential anti-proliferative agents, VEGFR-2 inhibitors and apoptotic inducers” (Journal of Enzyme Inhibition and Medicinal Chemistry, 2022).

Key:
HCT-116 cells = assay: Anti-proliferative activity, SRB assay, HCT-116; assay type: cell-based, human; conditions: for IC50: SRB assay, 72 h exposure, mean ± SD of three separate experiments; for HCT-116 SI (selectivity index): ratio of IC50 for normal cells (WI-38) to IC50 for HCT-116
Excerpt: Several of these derivatives were reported as acting as competitive inhibitors of different tyrosine kinases, with potent cytotoxic activity against various cell lines[58]^,[59]. […] Thus, in this study a novel series of benzoxazole-benzamide conjugates was initially evaluated for their potential anti-cancer activity against colon cancer cell line (HCT-116), breast cancer cell line (MCF-7) and normal human fibroblasts (WI-38), using the Sulforhodamine B colorimetric (SRB) assay.
2.1. Anti-proliferative activity against HCT-116 and MCF-7 human cancer cells lines.
The sulforhodamine B (SRB) assays were performed according to Skehan et al..
Briefly, exponentially growing cells were trypsinized, counted and seeded at the appropriate densities (5000 cells/100 μL/ well) into 96-well microtiter plates. Cells were incubated in a humidified atmosphere at 37 °C for 24 h. Then, the cells were exposed to the tested compounds at the desired concentrations (0.01, 0.1, 1, 10, and 100 μM) or to 1% dimethyl sulfoxide (DMSO) for 72 h. At the end of the treatment period, the media were removed, and the cells were fixed with 10% trichloroacetic acid at 4 °C for 1 h. Following, the cells were washed with tap water four times and incubated with SRB 0.4% for 30 min. Excess dye was removed by washing repeatedly with 1% (vol/vol) acetic acid. The protein-bound dye was dissolved in 10 mM Tris base solution for (optical density) OD determination at 510 nm using a Spectra Max plus Microplate Reader (Molecular Devices, CA). Cell viability was expressed relative to the untreated control cells. […]

MCF-7 cells = assay: Annexin V-FITC/PI apoptosis assay, MCF-7; assay type: cell-based, human; conditions: for %Apoptosis %Early: control 0.47; for %Apoptosis %Late: control 1.34; for %Necrosis: control 1.6; for %Apoptosis %Total: control 3.41
Procedure: 2.4. Annexin V-FITC/PI apoptosis assay.
For this study, annexin V-FITC / PI apoptosis detection kit was used; HCT -116 and MCF-7 cells were stained with annexin V fluorescein isothiocyanate (FITC) and propidium iodide (PI) counter-stained.1 x 10^5 HCT-116 cells were 48 h incubated with compound 1 or 11, trypsinized, washed with phosphate-buffered saline (PBS), stained in the dark at 37 °C for 15 min utes.
Finally, the cells analyzed with a cytometer of FACS Caliber flow.

O=C(CSc1nc2ccccc2o1)Nc1ccc(C(=O)NC2CCCCC2)cc1 [Compound 1]
IC50 (HCT-116 cells; Homo sapiens, HCT-116, 72 h): 7.2 ± 0.01 µM
IC50 (HCT-116 cells): 7.8 ± 0.015 µM
HCT-116 SI (selectivity index) (HCT-116 cells): 5.3
total increase in apoptosis compared to the control (MCF-7 cells): approximately 5.8 fold
%Apoptosis %Early (MCF-7 cells): 6.02%
%Apoptosis %Late (MCF-7 cells): 12.17%
%Necrosis (MCF-7 cells): 1.59%
%Apoptosis %Total (MCF-7 cells): 19.78%

O=C(CSc1nc2cc(Cl)ccc2o1)Nc1ccc(C(=O)Nc2ccc(Cl)cc2)cc1 [Compound 11]
IC50 (HCT-116 cells; Homo sapiens, HCT-116, 72 h): 12.2 ± 0.007 µM
HCT-116 SI (selectivity index) (HCT-116 cells): 8.5
total increase in apoptosis compared to the control (MCF-7 cells): ~5.0 fold
%Apoptosis %Early (MCF-7 cells): 4.93%
%Apoptosis %Late (MCF-7 cells): 10.26%
%Necrosis (MCF-7 cells): 1.74%
%Apoptosis %Total (MCF-7 cells): 16.93%
